Patent US9609868B2, “Alkoximino-substituted anthranilic acid diamides as pesticides” (BAYER CROPSCIENCE AKTIENGESELLSCHAFT, priority 2013, dated 2017)

Experiments:
[1] = log P by HPLC on reversed-phase column (C18), EEC directive 79/831 Annex V.A8; type: physicochemical; conditions: HPLC reversed-phase C18, 43° C., data refer to the E isomer
Description: The log P values reported in the tables and Preparation Examples above were determined in accordance with EEC directive 79/831 Annex V.A8 by HPLC (High Performance Liquid Chromatography) using a reversed-phase column (C18). Temperature 43° C. The calibration is effected with unbranched alkan-2-ones (having 3 to 16 carbon atoms), for which the log P values are known.

[2] = system: Myzus persicae; assay: Myzus persicae - spray test (MYZUPE); type: in vivo; conditions: Chinese cabbage leaf disks
Description: Myzus persicae—Spray Test (MYZUPE)
Solvent: 78 parts by weight of acetone • • 1.5 parts by weight of dimethylformamide
(§1) Emulsifier: 0.5 parts by weight of alkylaryl polyglycol ether
(§2) To produce a suitable active compound preparation, 1 part by weight of active compound is mixed with the stated amounts of solvent and emulsifier, and the concentrate is diluted with emulsifier-containing water to the desired concentration.
Disks of Chinese cabbage leaves (Brassica pekinensis) infested by all stages of the green peach aphid (Myzus persicae) are sprayed with an active compound preparation of the desired concentration.
After the desired period of time, the efficacy in % is determined. 100% means that all the aphids have been killed; 0% means that none of the aphids have been killed.

[3] = system: Phaedon cochleariae; assay: Phaedon cochleariae - spray test (PHAECO); type: in vivo; conditions: application rate 100 g/ha, Chinese cabbage leaf disks
Description: Phaedon cochleariae—Spray Test (PHAECO)
(§3) Solvent: 78.0 parts by weight of acetone • • 1.5 parts by weight of dimethylformamide
as §1, §2
After the desired period of time, the efficacy in % is determined. 100% means that all the beetle larvae have been killed; 0% means that no beetle larvae have been killed.

[4] = system: Spodoptera frugiperda; assay: Spodoptera frugiperda - spray test (SPODFR); type: in vivo; conditions: application rate 100 g/ha, maize leaf disks
Description: Spodoptera frugiperda—Spray Test (SPODFR)
as §3, §1, §2
Leaf disks of maize (Zea mays) are sprayed with an active compound preparation of the desired concentration and, after drying, populated with caterpillars of the armyworm (Spodoptera frugiperda).
After the desired period of time, the efficacy in % is determined. 100% means that all the caterpillars have been killed; 0% means that no caterpillars have been killed.

C#CCOC(=O)NNC(=O)c1cc(C=NOC)cc(C)c1NC(=O)c1cc(Br)nn1-c1ncccc1Cl [A-08]
log p ([1]; Table A): 2.58
efficacy (aphids killed) ([2]; application rate 100 g/ha): 100%
efficacy (beetle larvae killed) [3]: 100%
efficacy (caterpillars killed) [4]: 100%

C#CCNC(=O)c1cc(C=NOC)cc(C)c1NC(=O)c1cc(CF)nn1-c1ncccc1Cl [C-57]
log p ([1]; Table C): 2.38
efficacy (aphids killed) ([2]; application rate 100 g/ha): 90%
efficacy (beetle larvae killed) [3]: 100%
efficacy (caterpillars killed) [4]: 100%

CCOc1cc(C(=O)Nc2c(C)cc(C=NOC)cc2C(=O)NC)n(-c2ncccc2Cl)n1 [C-10]
log p ([1]; Table C): 2.48
efficacy (aphids killed) ([2]; application rate 100 g/ha): 100%
efficacy (beetle larvae killed) [3]: 100%
efficacy (caterpillars killed) [4]: 100%

CON=Cc1cc(C)c(NC(=O)c2cc(Br)nn2-c2ncccc2Cl)c(C(=O)NN(C)C(=O)OC)c1 (mixture of isomers) [A-45]
log p ([1]; Table A): 2.50
efficacy (aphids killed) ([2]; application rate 100 g/ha): 100%
efficacy (beetle larvae killed) [3]: 100%
efficacy (caterpillars killed) [4]: 100%

CON=Cc1cc(C)c(NC(=O)c2cc(OC(F)F)nn2-c2ncccc2Cl)c(C(=O)NN(C)C(=O)OC)c1 (mixture of isomers) [A-49]
log p ([1]; Table A): 2.60
efficacy (aphids killed) ([2]; application rate 100 g/ha): 90%
efficacy (beetle larvae killed) [3]: 100%
efficacy (caterpillars killed) [4]: 100%

CON=Cc1cc(C)c(NC(=O)c2cc(C(F)(F)F)nn2-c2ncccc2Cl)c(C(=O)NNS(C)(=O)=O)c1 [A-23]
log p ([1]; Table A): 2.63
efficacy (aphids killed) ([2]; application rate 100 g/ha): 100%
efficacy (beetle larvae killed) [3]: 100%
efficacy (caterpillars killed) [4]: 100%

CON=Cc1cc(C)c(NC(=O)c2cc(CF)nn2-c2ncccc2Cl)c(C(=O)NNC(=O)OC)c1 (mixture of isomers) [A-44]
log p ([1]; Table A): 2.02
efficacy (aphids killed) ([2]; application rate 100 g/ha): 90%
efficacy (beetle larvae killed) [3]: 100%
efficacy (caterpillars killed) [4]: 100%

CON=Cc1cc(C)c(NC(=O)c2cc(C(F)(F)F)nn2-c2ncccc2Cl)c(C(=O)NC2C[S+]([O-])C2)c1 (mixture of isomers) [B-05]
log p ([1]; Table B): 2.51
efficacy (aphids killed) ([2]; application rate 100 g/ha): 90%
efficacy (beetle larvae killed) [3]: 100%
efficacy (caterpillars killed) [4]: 100%

CON=Cc1cc(C)c(NC(=O)c2cc(CF)nn2-c2ncccc2Cl)c(C(=O)NC(C)C)c1 [C-49]
log p ([1]; Table C): 2.65
efficacy (aphids killed) ([2]; application rate 100 g/ha): 90%
efficacy (beetle larvae killed) [3]: 100%
efficacy (caterpillars killed) [4]: 100%

CON=Cc1cc(C)c(NC(=O)c2cc(OC(C)C)nn2-c2ncccc2Cl)c(C(=O)NC(C)C)c1 [C-07]
log p ([1]; Table C): 3.29
efficacy (aphids killed) ([2]; application rate 100 g/ha): 90%
efficacy (beetle larvae killed) [3]: 100%
efficacy (caterpillars killed) [4]: 100%

C#CCNC(=O)c1cc(C=NOC)cc(C)c1NC(=O)c1cc(C(F)F)nn1-c1ncccc1Cl [C-62]
log p ([1]; Table C): 2.69
efficacy (aphids killed) ([2]; application rate 100 g/ha): 90%
efficacy (beetle larvae killed) [3]: 100%
efficacy (caterpillars killed) [4]: 100%

CON=Cc1cc(C)c(NC(=O)c2cc(OCC(F)F)nn2-c2ncccc2Cl)c(C(=O)NC2CC2)c1 [C-17]
log p ([1]; Table C): 2.91
efficacy (aphids killed) ([2]; application rate 100 g/ha): 90%
efficacy (beetle larvae killed) [3]: 100%
efficacy (caterpillars killed) [4]: 100%

CON=Cc1cc(C)c(NC(=O)c2cc(C(F)(F)F)nn2-c2ncccc2Cl)c(C(=O)NNC(C)=O)c1 (mixture of isomers) [A-32]
log p ([1]; Table A): 2.38
efficacy (aphids killed) ([2]; application rate 100 g/ha): 90%
efficacy (beetle larvae killed) [3]: 100%
efficacy (caterpillars killed) [4]: 100%

CON=Cc1cc(C)c(NC(=O)c2cc(C(F)F)nn2-c2ncccc2Cl)c(C(=O)NC(C)(C)C)c1 [C-35]
log p ([1]; Table C): 3.34
efficacy (aphids killed) ([2]; application rate 100 g/ha): 90%
efficacy (beetle larvae killed) [3]: 100%
efficacy (caterpillars killed) [4]: 100%

CON=Cc1cc(C)c(NC(=O)c2cc(OCC(F)(F)F)nn2-c2ncccc2Cl)c(C(=O)NNC(=O)OC)c1 (mixture of isomers) [A-33]
log p ([1]; Table A): 2.70
efficacy (aphids killed) ([2]; application rate 100 g/ha): 100%
efficacy (beetle larvae killed) [3]: 100%
efficacy (caterpillars killed) [4]: 100%

COCCOC(=O)NNC(=O)c1cc(C=NOC)cc(C)c1NC(=O)c1cc(C(F)(F)F)nn1-c1ncccc1Cl [A-20]
log p ([1]; Table A): 2.74
efficacy (aphids killed) ([2]; application rate 100 g/ha): 90%
efficacy (beetle larvae killed) [3]: 100%
efficacy (caterpillars killed) [4]: 100%

CON=Cc1cc(C)c(NC(=O)c2cc(OC)nn2-c2ncccc2Cl)c(C(=O)NC2CC2)c1 [C-23]
log p ([1]; Table C): 2.40
efficacy (aphids killed) ([2]; application rate 100 g/ha): 100%
efficacy (beetle larvae killed) [3]: 100%
efficacy (caterpillars killed) [4]: 100%

CON=Cc1cc(C)c(NC(=O)c2cc(OC)nn2-c2ncccc2Cl)c(C(=O)NC(C)C)c1 (mixture of isomers) [C-32]
log p ([1]; Table C): 3.22
efficacy (aphids killed) ([2]; application rate 100 g/ha): 90%
efficacy (beetle larvae killed) [3]: 100%
efficacy (caterpillars killed) [4]: 100%

CON=Cc1cc(C)c(NC(=O)c2cc(OC)nn2-c2ncccc2Cl)c(C(=O)NC(C)(C)C)c1 (mixture of isomers) [C-37]
log p ([1]; Table C): 3.71
efficacy (aphids killed) ([2]; application rate 100 g/ha): 90%
efficacy (beetle larvae killed) [3]: 100%
efficacy (caterpillars killed) [4]: 100%

CON=Cc1cc(C)c(NC(=O)c2cc(C(F)(F)F)nn2-c2ncccc2Cl)c(C(=O)NC(C)CSC)c1 (centres unmarked) [C-05]
log p ([1]; Table C): 3.72
efficacy (aphids killed) ([2]; application rate 100 g/ha): 100%
efficacy (beetle larvae killed) [3]: 100%
efficacy (caterpillars killed) [4]: 100%

CCNC(=O)c1cc(C=NOC)cc(C)c1NC(=O)c1cc(OC)nn1-c1ncccc1Cl [C-47]
log p ([1]; Table C): 2.41
efficacy (aphids killed) ([2]; application rate 100 g/ha): 100%
efficacy (beetle larvae killed) [3]: 100%
efficacy (caterpillars killed) [4]: 100%

CON=Cc1cc(C)c(NC(=O)c2cc(OC(C)C)nn2-c2ncccc2Cl)c(C(=O)NC(C)C2CC2)c1 (centres unmarked) [C-08]
log p ([1]; Table C): 3.65
efficacy (aphids killed) ([2]; application rate 100 g/ha): 90%
efficacy (beetle larvae killed) [3]: 100%
efficacy (caterpillars killed) [4]: 100%

COCCNC(=O)c1cc(C=NOC)cc(C)c1NC(=O)c1cc(C(F)F)nn1-c1ncccc1Cl [C-59]
log p ([1]; Table C): 2.53
efficacy (aphids killed) ([2]; application rate 100 g/ha): 90%
efficacy (beetle larvae killed) [3]: 100%
efficacy (caterpillars killed) [4]: 100%

CCOc1cc(C(=O)Nc2c(C)cc(C=NOC)cc2C(=O)NC(C)(C)C)n(-c2ncccc2Cl)n1 [C-11]
log p ([1]; Table C): 3.42
efficacy (aphids killed) ([2]; application rate 100 g/ha): 100%
efficacy (beetle larvae killed) [3]: 100%
efficacy (caterpillars killed) [4]: 100%

CON=Cc1cc(C)c(NC(=O)c2cc(OCC(F)F)nn2-c2ncccc2Cl)c(C(=O)NC(C)(C)C)c1 [C-21]
log p ([1]; Table C): 3.43
efficacy (aphids killed) ([2]; application rate 100 g/ha): 100%
efficacy (beetle larvae killed) [3]: 83%
efficacy (caterpillars killed) [4]: 100%

COCCNC(=O)c1cc(C=NOC)cc(C)c1NC(=O)c1cc(CF)nn1-c1ncccc1Cl [C-56]
log p ([1]; Table C): 2.27
efficacy (aphids killed) ([2]; application rate 20 g/ha): 90%
efficacy (beetle larvae killed) [3]: 100%
efficacy (caterpillars killed) [4]: 100%

CCNC(=O)c1cc(C=NOC)cc(C)c1NC(=O)c1cc(C(F)F)nn1-c1ncccc1Cl [C-63]
log p ([1]; Table C): 2.71
efficacy (aphids killed) ([2]; application rate 100 g/ha): 100%
efficacy (beetle larvae killed) [3]: 100%
efficacy (caterpillars killed) [4]: 100%

C#CCNC(=O)c1cc(C=NOC)cc(C)c1NC(=O)c1cc(OC)nn1-c1ncccc1Cl [C-48]
log p ([1]; Table C): 2.40
efficacy (aphids killed) ([2]; application rate 100 g/ha): 100%
efficacy (beetle larvae killed) [3]: 100%
efficacy (caterpillars killed) [4]: 100%

CON=Cc1cc(C)c(NC(=O)c2cc(OC)nn2-c2ncccc2Cl)c(C(=O)NC(C)(C)C)c1 [C-26]
log p ([1]; Table C): 3.06
efficacy (aphids killed) ([2]; application rate 100 g/ha): 100%
efficacy (beetle larvae killed) [3]: 100%
efficacy (caterpillars killed) [4]: 100%
